Measured values reported in patent US12527832B2, “Enriched Withania somnifera based dietary composition and a method thereof” (priority 2015, dated 2026).

Columns and labels:
Swiss mice = experiment: Swimming endurance test; type: in vivo; details: 8th day after 7 days once daily p.o.
Method: Extracts were given to the mice, once daily for a period of 7 days. On 8th day the mice were subjected to swimming stress by keeping them in propylene tank of dimension (37×37×30 cm), filled with water to a height of 25 cm. The […] were allowed to swim till complete exhaustion and the endpoint was taken when the animal started drowning. The mean swimming time for each group was calculated.

Albino Wistar rats = experiment: Anoxia stress tolerance (AST) test; type: in vivo, rat; details: p.o. daily
Method: Albino Wistar rats of either sex weighing 150-220 g were selected and divided into seven groups of six each. Doses in each group were calculated thus, only 5 mg/Kg body weight withanolide were administered to each animal. The test was conducted as per the protocol disclosed in U.S. Pat. No. 9,987,323B2.
Animals were treated as shown above for the 3 weeks. At the end of 1st, 2nd and 3rd week i.e., on 7th, 14th and 21st day 1 h after the treatment stress was induced by placing each animal individually in the hermetic vessel of 1 L capacity to record anoxia tolerance time. The time duration of entry of the animal into the hermetic vessel and the appearance of the first convulsion was taken as time of anoxia.

Swiss albino mice = experiment: Pentobarbital induced sleep activity; type: in vivo; details: 1 mg/kg
Method: Swiss albino mice weighing 25-30 gm were used for the study.
Thirty minutes later, pentobarbital 40 mg/kg body weight was administered to each mouse to induce sleep. The onset time of sleep was recorded for all the animals. After induction of sleep, mice were placed in the inverted position and when sedation was over, the time point when the mice returned to their normal posture was noted. The time interval between dosing and the start of sleep was recorded as latency time.

GABA receptors = experiment: Expression of GABA receptors in rat glioblastoma (C6) cell line; type: cell-based; details: C6 cells, positive control 1 μg/mL
Wistar rats = experiment: Carrageenan induced paw edema model; type: in vivo, rat; details: single p.o. dose
Method: Anti-inflammatory activity of Withania somnifera extracts was assessed by carrageenan induced paw edema model in rats. Wistar rats were divided into seven groups (n=5). Following treatment was given to the rats as single dose; • Group 1: Control (Received only vehicle, 1% Tween 80 v/v p.o.) • Group II: Powdered Withania somnifera plant parts minimum 0.4% withanolides—Dosage 1750 mg/kg p.o. • Group III: Withania somnifera plant extract standardized minimum 2.5% withanolides (WG2.5)—Dosage 200 mg/kg p.o. • Group IV: Withania somnifera plant extract standardized minimum 5% withanolides (WG5)—Dosage 100 mg/kg p.o. • Group V: Withania somnifera plant extract standardized minimum 10% Withanolide Glycoside (WG10)—Dosage 50 mg/kg p.o. • Group VI: Sample 2 standardized with minimum 35±3% Withanolide Glycoside (WG 35)—Dosage 14 mg/kg p.o). • Group VII: Indomethacin (10 mg/kg p.o.).
After 30 minutes of extracts 0.1 mL of carrageenan (1% in normal saline) was injected into the right hind paw of each rat. The paw volume was measured plethysmographically at 0, 0.5, 1, 2, 3, 4 and 5th hour after challenge. The percentage inhibition of edema was calculated for each group with respect to the vehicle received control group of animals.

[1] = Bioavailability of Withaferin A and Withanoside IV in animals; type: in vivo; details: rat plasma, p.o.; standards 15 mg/kg, WG35 500 mg/kg
Method: Albino rats weighing 200-220 gm of both sexes were used for the study. The rats were kept individually in polypropylene cages and maintained in a well-ventilated room under normal and uniform conditions like 12 hours light and dark cycle and at 26±2° C. Water and feed were given ad-libitum. After the acclimatization period, the animals were fasted overnight before administration of test products.
Immediately after drug administration, 0.5 ml of blood was withdrawn at 0, 0.5, 1, 1.5, 2, 4, 6, 8 and 12 hours. Plasma samples were separated and Withaferin A and Withanoside IV were detected.

[2] = rats, administered orally; cited from earlier work

SMILES: CN1C(=O)CN=C(c2ccccc2)c2cc(Cl)ccc21 [Diazepam]
- Swimming time (Swiss mice): 58.67 min
- Duration of anoxia stress tolerance (Albino Wistar rats; 1st week): 34.40 min
- Duration of anoxia stress tolerance (Albino Wistar rats; 2nd week): 35.1 min
- Duration of anoxia stress tolerance (Albino Wistar rats; 3rd week): 37.00 min
- Duration of sleep (Swiss albino mice; pentobarbital 40 mg/kg): 99
- Onset time of sleep (latency time) (Swiss albino mice; pentobarbital 40 mg/kg): 27 min
- Percentage decrease in onset time of sleep (Swiss albino mice; vs control): 47%
- Percentage increase in duration of sleep (Swiss albino mice; vs control): 74%

SMILES: NCCCC(=O)O [GABA, Gamma aminobutyric acid]
- Gene expression of GABA receptors, fold increase (cell control = 1.00) (GABA receptors): 1.00

SMILES: COc1ccc2c(c1)c(CC(=O)O)c(C)n2C(=O)c1ccc(Cl)cc1 [Indomethacin]
- Percentage inhibition of paw oedema (Wistar rats; 0.5 hr): 28%
- Percentage inhibition of paw oedema (Wistar rats; 1 hr): 65%
- Percentage inhibition of paw oedema (Wistar rats; 2 hr): 80%
- Percentage inhibition of paw oedema (Wistar rats; 3 hr): 86%

SMILES: CC1=C(CO)C(=O)O[C@@H]([C@@H](C)[C@H]2CC[C@H]3[C@@H]4C[C@H]5O[C@]56[C@@H](O)C=CC(=O)[C@]6(C)[C@H]4CC[C@]23C)C1 [Withaferin A]
- Withaferin A AUC (0-12 h) [1]: 30.2 ng·h/mL
- Withaferin A Cmax [1]: 28 ng/mL

SMILES: CC1=C(C)C(=O)O[C@@H]([C@](C)(O)[C@H]2CC[C@H]3[C@@H]4[C@@H]5O[C@@H]5[C@@]5(O)CC=CC(=O)[C@]5(C)[C@H]4CC[C@]23C)C1 [Withanolide A]
- Absolute bioavailability of withanolide A in plasma [2]: less than 5%

SMILES: CC1=C(CO)C(=O)O[C@@H]([C@@H](C)[C@H]2CC[C@H]3[C@@H]4CC=C5C[C@@H](O[C@@H]6O[C@H](CO[C@@H]7O[C@H](CO)[C@@H](O)[C@H](O)[C@H]7O)[C@@H](O)[C@H](O)[C@H]6O)C[C@H](O)[C@]5(C)[C@H]4CC[C@]23C)C1 [Withanoside IV]
- Withaferin A AUC (0-12 h) [1]: 18 ng·h/mL
- Withaferin A Cmax [1]: 13.5 ng/mL
- Withanoside IV AUC (0-12 h) [1]: 14 ng·h/mL
- Withanoside IV Cmax [1]: 10.2 ng/mL
